The results in this text go back to patent US20090209536A1, “AMINOQUINAZOLINE CANNABINOID RECEPTOR MODULATORS FOR TREATMENT OF DISEASE” (KALYPSYS, INC., priority 2007, published 2009).

Experiment [1] concerns the target T1, human cannabinoid receptor type 2 (Homo sapiens, UniProt P34972).
T1 construct: expressed in transfected cells; membrane preparation
In words: Human CB2 Radioligand Binding Assay. As to conditions: competition with [3H] CP-55,940; membranes from stably transfected CHO CB2 cells; read-out: CB2 Ligand Binding Asssay EC50. Put shortly:
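Filtration competition binding on membranes from CHO cells stably expressing human CB2, with [3H]CP-55,940 at its lot-specific Kd, in 50 mM Tris-HCl pH 7.4, EGTA, MgCl2, 5 mg/ml BSA, 1% DMSO; 90 min at 30° C. Compounds at 10 uM single point or dose-response; bound radioactivity by scintillation, 100 nM CP-55,940 as 100% efficacy.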

Experiment [2] addresses T2, human cannabinoid receptor type 1 (Homo sapiens, UniProt P21554).
T2 construct: purchased Perkin Elmer RBHCB1M; host or cells: HEK 293 EBNA cells
In words: Human CB1 Radioligand Binding Assay (basis of selectivity, CB2 vs. CB1). As to conditions: CB1: HEK 293 EBNA cells expressing human CB1; CB2: CHO CB2 membranes. The procedure:
2. Human CB1 Radioligand Binding Assay
The incubation buffer was composed of 50 mM Tris-HCl pH 7.4, 2.5 mM EDTA, 5 mM MgCl2, 5.0 mg/ml fatty acid free BSA and the wash buffer was composed of 50 mM Tris-HCl pH 7.4, 2.5 mM EDTA, 5 mM MgCl2, 0.5 mg/ml fatty acid free BSA.

Structures are written as SMILES.

T1 sequence (P34972 whole entry): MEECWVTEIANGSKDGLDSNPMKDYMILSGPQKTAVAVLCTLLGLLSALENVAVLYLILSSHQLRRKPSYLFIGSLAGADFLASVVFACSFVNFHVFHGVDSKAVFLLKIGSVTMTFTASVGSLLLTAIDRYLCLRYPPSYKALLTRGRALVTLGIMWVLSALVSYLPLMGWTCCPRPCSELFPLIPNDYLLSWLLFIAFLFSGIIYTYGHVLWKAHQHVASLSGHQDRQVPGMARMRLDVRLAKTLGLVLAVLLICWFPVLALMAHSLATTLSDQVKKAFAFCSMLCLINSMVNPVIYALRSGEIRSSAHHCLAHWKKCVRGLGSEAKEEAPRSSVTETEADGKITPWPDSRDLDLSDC
T2 sequence (P21554 whole entry): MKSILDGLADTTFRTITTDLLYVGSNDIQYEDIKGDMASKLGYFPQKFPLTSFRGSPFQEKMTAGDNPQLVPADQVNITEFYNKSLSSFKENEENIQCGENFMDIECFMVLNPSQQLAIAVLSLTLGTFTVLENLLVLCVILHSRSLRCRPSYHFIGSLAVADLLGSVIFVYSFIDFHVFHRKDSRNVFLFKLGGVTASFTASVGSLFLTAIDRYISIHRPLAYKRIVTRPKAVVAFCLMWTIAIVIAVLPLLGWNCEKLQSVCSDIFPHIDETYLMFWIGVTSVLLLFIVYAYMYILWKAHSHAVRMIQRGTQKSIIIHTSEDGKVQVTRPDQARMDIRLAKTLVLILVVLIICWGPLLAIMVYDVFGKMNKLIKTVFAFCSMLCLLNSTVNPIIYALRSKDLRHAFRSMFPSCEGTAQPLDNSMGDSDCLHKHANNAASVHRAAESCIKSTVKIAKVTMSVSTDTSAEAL

With `CN1CCN(c2nc(C3CCCCC3)nc3ccc(Cl)cc23)CC1` [Example 161, 6-Chloro-2-cyclohexyl-4-(4-methylpiperazin-1-yl)quinazoline], in experiment [1], the 50% effective concentration (EC50) is less than 1000 nM. Also, the “Selectivity, CB2 vs. CB1” value in experiment [2] was “− (− indicates ≦ 10−fold)”.
For `CC(C)(C)c1ccc(-c2nc(N3CCCCC3)c3ccccc3n2)cc1` [Example 111, 2-(4-tert-Butylphenyl)-4-(piperidin-1-yl)quinazoline], in that order: less than 1000 nM and “− (− indicates ≦ 10−fold)”.
For `CN(CC1CC1)c1nc(-c2ccc(C(C)(C)C)cc2)nc2ccccc12` [Example 132, 2-(4-tert-Butylphenyl)quinazolin-4-yl cyclopropylmethyl-N-methylamine], in that order: less than 1000 nM and “− (− indicates ≦ 10−fold)”.
For `Cn1ccnc1C(=O)N1CCN(c2nc(-c3ccccc3Cl)nc3ccccc23)CC1` [Example 263, (4-(2-(2-chlorophenyl)quinazolin-4-yl)piperazin-1-yl)(1-methyl-1H-imidazol-2-yl)methanone], the EC50 in experiment [1] was more than 1000 nM. Further, the “Selectivity, CB2 vs. CB1” value in experiment [2] was “− (− indicates ≦ 10−fold)”.
Turning to `Clc1ccccc1-c1nc(NCC23CC4CC(CC(C4)C2)C3)c2ccccc2n1` [Example 190, 2-(2-Chlorophenyl)-N-(1-adamanthylmethyl)quinazolin-4-amine], the concentration for a half-maximal effect (EC50) in experiment [1] is more than 1000 nM. Also, the “Selectivity, CB2 vs. CB1” value in experiment [2] was “− (− indicates ≦ 10−fold)”.
For `CN(Cc1ccccc1)c1nc(-c2ccc(Cl)cc2Cl)nc2ccccc12` [Example 32, N-Benzyl-2-(2,4-dichlorophenyl)-N-methylquinazolin-4-amine], in that order: more than 1000 nM and “− (− indicates ≦ 10−fold)”.
With `CCCN1[C@H](C)CN(c2nc(-c3ccccc3Cl)nc3ccccc23)C[C@@H]1C` [Example 79, 2-(2-Chlorophenyl)-4-((3S,5R)-3,5-dimethyl-4-propylpiperazin-1-yl)quinazoline], in experiment [1], the EC50 is less than 1000 nM. The “Selectivity, CB2 vs. CB1” value in experiment [2] was “− (− indicates ≦ 10−fold)”.
Consider `CCOC(=O)N1CCN(c2nc(-c3ccccc3F)nc3cccc(F)c23)CC1` [Example 281, Ethyl 4-(5-fluoro-2-(2-fluorophenyl)quinazolin-4-yl)piperazine-1-carboxylate], for which the 50% effective concentration (EC50) in experiment [1] was less than 1000 nM. In addition, the “Selectivity, CB2 vs. CB1” value in experiment [2] is reported as “+ (+ indicates > 10−fold)”.
For `CCOC(=O)N1CCN(c2nc(-c3ccccc3Cl)nc3ccc(F)cc23)CC1` [Example 269, Ethyl 4-(2-(2-chlorophenyl)-6-fluoroquinazolin-4-yl)piperazine-1-carboxylate], in that order: less than 1000 nM and “+ (+ indicates > 10−fold)”.
For `CN1CCN(c2nc(-c3ccc(Cl)cc3)nc3ccc(Cl)cc23)CC1` [Example 212, 6-Chloro-2-(4-chlorophenyl)-4-(4-methylpiperazin-1-yl)quinazoline], in that order: more than 1000 nM and “− (− indicates ≦ 10−fold)”.
For `O=C(NCc1nc(N2CCCC2)c2ccccc2n1)Nc1ccc(Cl)cc1Cl` [Example 10, 1-(2,4-Dichlorophenyl)-3-((4-(pyrrolidin-1-yl)quinazolin-2-yl)methyl)urea], in that order: more than 1000 nM and “+ (+ indicates > 10−fold)”.
Regarding `FC(F)(F)Oc1ccc(-c2nc(N3CCCCC3)c3ccccc3n2)cc1` [Example 140, 4-Piperidin-1-yl-2-(4-trifluoromethoxyphenyl)quinazoline], in experiment [1], the 50% effective concentration (EC50) is less than 1000 nM. Besides, the “Selectivity, CB2 vs. CB1” value in experiment [2] is “− (− indicates ≦ 10−fold)”.
Consider `CCOC(=O)N1CCN(c2nc(-c3ccccc3F)nc3ccc(OC)cc23)CC1` [Example 275, Ethyl 4-(2-(2-fluorophenyl)-6-methoxyquinazolin-4-yl)piperazine-1-carboxylate], for which the EC50 in experiment [1] was more than 1000 nM. The “Selectivity, CB2 vs. CB1” value in experiment [2] is “+ (+ indicates > 10−fold)”.
For `CC(C)(C)CCNc1nc(-c2ccccc2Cl)nc2ccccc12` [Example 189, 2-(2-Chlorophenyl)-N-(3,3-dimethylbutyl)quinazolin-4-amine], in that order: more than 1000 nM and “− (− indicates ≦ 10−fold)”.
For `CC(C)(C)c1ccc(-c2nc(N3CCCC3)c3cc(Cl)ccc3n2)cc1` [Example 278, 2-(4-tert-Butylphenyl)-6-chloro-4-(pyrrolidin-1-yl)quinazoline], in that order: less than 1000 nM and “− (− indicates ≦ 10−fold)”.
Turning to `CCOC(=O)N1CCN(c2nc(-c3ccccc3F)nc3cccc(Cl)c23)CC1` [Example 238, Ethyl 4-(5-chloro-2-(2-fluorophenyl)quinazolin-4-yl)piperazine-1-carboxylate], the EC50 in experiment [1] was less than 1000 nM. For the same molecule, in experiment [2], the “Selectivity, CB2 vs. CB1” value is “+ (+ indicates > 10−fold)”.
For `c1ccc(-c2nc(N3CCCC3)c3ccccc3n2)cc1` [Example 48, 2-Phenyl-4-(pyrrolidin-1-yl)quinazoline], in that order: more than 1000 nM and “− (− indicates ≦ 10−fold)”.
On to `CN1CCN(c2nc(CNS(=O)(=O)c3cccc4ccccc34)nc3ccccc23)CC1` [Example 5, N-((4-(4-Methylpiperazin-1-yl)quinazolin-2-yl)methyl)naphthalene-1-sulfonamide], for which the half-maximal effective concentration (EC50) in experiment [1] was less than 1000 nM. Moreover, the “Selectivity, CB2 vs. CB1” value in experiment [2] is “+ (+ indicates > 10−fold)”.
For `O=S(=O)(NCc1nc(N2CCCC2)c2ccccc2n1)c1ccc(F)cc1F` [Example 4, 2,4-Difluoro-N-((4-(pyrrolidin-1-yl)quinazolin-2-yl)methyl)benzenesulfonamide], in that order: less than 1000 nM and “− (− indicates ≦ 10−fold)”.
For `CCOC(=O)N1CCN(c2nc(Cc3cccc4ccccc34)nc3ccccc23)CC1` [Example 345, Ethyl 4-(2-(naphthalen-1-ylmethyl)quinazolin-4-yl)piperazine-1-carboxylate], in that order: less than 1000 nM and “+ (+ indicates > 10−fold)”.
For `CN1CCN(c2nc(-c3ccccc3Cl)nc3c(Cl)cccc23)CC1` [Example 228, 8-Chloro-2-(2-chlorophenyl)-4-(4-methylpiperazin-1-yl)quinazoline], in that order: more than 1000 nM and “− (− indicates ≦ 10−fold)”.
As to `CC(C)c1nc(N2CCCCC2)c2ccccc2n1` [Example 146, 2-Isopropyl-4-piperidin-1-ylquinazoline], the concentration for a half-maximal effect (EC50) in experiment [1] was more than 1000 nM. For the same molecule, the “Selectivity, CB2 vs. CB1” value in experiment [2] was “− (− indicates ≦ 10−fold)”.
For `Clc1ccc2nc(-c3ccccc3Cl)nc(N3CCCC3)c2c1` [Example 205, 6-Chloro-2-(2-chlorophenyl)-4-(pyrrolidin-1-yl)quinazoline], in that order: less than 1000 nM and “+ (+ indicates > 10−fold)”.
For `Clc1ccc(-c2nc(N3CCCC3)c3ccccc3n2)cc1` [Example 128, 2-(4-Chlorophenyl)-4-(pyrrolidin-1-yl)quinazoline], in that order: less than 1000 nM and “+ (+ indicates > 10−fold)”.
On to `CC(C)C(=O)N1CCN(c2nc(-c3ccccc3Cl)nc3ccccc23)CC1` [Example 96, 1-(4-(2-(2-Chlorophenyl)quinazolin-4-yl)piperazin-1-yl)-2-methylpropan-1-one], for which the EC50 in experiment [1] was less than 1000 nM. Besides, the “Selectivity, CB2 vs. CB1” value in experiment [2] is recorded as “+ (+ indicates > 10−fold)”.
As for `FC(F)(F)C1CCN(c2nc(-c3ccccc3Cl)nc3ccccc23)CC1` [Example 60, 2-(2-Chlorophenyl)-4-(4-(trifluoromethyl)piperidin-1-yl)quinazoline], the EC50 in experiment [1] was less than 1000 nM. The “Selectivity, CB2 vs. CB1” value in experiment [2] is listed as “− (− indicates ≦ 10−fold)”.
For `CN1CCN(c2nc(-c3ccc(F)c(F)c3)nc3ccccc23)CC1` [Example 18, 2-(3,4-Difluorophenyl)-4-(4-methylpiperazin-1-yl)quinazoline], in that order: less than 1000 nM and “+ (+ indicates > 10−fold)”.
For `CN1CCN(c2nc(-c3ccccc3Cl)nc3ccccc23)C(=O)C1` [Example 74, 1-(2-(2-Chlorophenyl)quinazolin-4-yl)-4-methylpiperazin-2-one], in that order: more than 1000 nM and “− (− indicates ≦ 10−fold)”.
On to `Clc1ccccc1-c1nc(NCC2CC2)c2ccccc2n1` [Example 56, 2-(2-Chlorophenyl)-N-(cyclopropylmethyl)quinazolin-4-amine], for which the EC50 in experiment [1] is more than 1000 nM. For the same molecule, the “Selectivity, CB2 vs. CB1” value in experiment [2] is given as “− (− indicates ≦ 10−fold)”.
For `CCCN1CCN(c2nc(-c3ccccc3Cl)nc3ccccc23)CC1` [Example 108, 2-(2-Chlorophenyl)-4-(4-propylpiperazin-1-yl)quinazoline], in that order: less than 1000 nM and “+ (+ indicates > 10−fold)”.
In the case of `CC(C)(C)c1ccc2c(N3CCCC3)nc(Nc3ccc(F)c(F)c3)nc2c1` [Example 289, 7-tert-Butyl-N-(3,4-difluorophenyl)-4-(pyrrolidin-1-yl)quinazolin-2-amine], the EC50 in experiment [1] is less than 1000 nM. The “Selectivity, CB2 vs. CB1” value in experiment [2] was “− (− indicates ≦ 10−fold)”.
For `CC1CCN(c2nc(-c3ccc(Cl)cc3)nc3ccccc23)CC1` [Example 125, 2-(4-Chlorophenyl)-4-(4-methylpiperidin-1-yl)quinazoline], in that order: less than 1000 nM and “− (− indicates ≦ 10−fold)”.
